According to patent publication USRE34918E, “Azaazulene compounds which are useful as antiallergic and antiinflammatory agents” (Kaken Pharmaceutical Co., Ltd., priority 1988, dated 1995):
Where “and” joins values, the source holds several entries; their conditions need not be identical. Equal values may be shown once.

Tests used:
[1] = test system: carrageenin edema in a foot-pad of rat; assay: Effect on carrageenin edema in a foot-pad of rat; type: in vivo, rat (male Wister); conditions: 50 mg/kg p.o., 4 hours after carrageenin
Description: The test was carried out according to the modified method on a method of Winter et al [Proc. Soc. Exp. Biol Med., 111, 544-547 (1962)]. Five male Wister rats weighing 148 to 162 g which were subjected to fasting for 24 hours were used as one group.
The test compound was suspended in 0.5% aqueous solution of CMC, and the suspension was administered orally in a amount of 50 mg/kg. After 60 minutes, 0.1 ml of 1% carrageenin solution in physiological saline was injected subcutaneously into the foot-pad of the left hind foot. Four hours after the injection of carrageenin, the volume of the foot-pad was measured by the apparatus for measurement of foot-pad volume in rat (commercially available from Ugobasile).
Swelling volume was calculated from the difference between a volume of foot-pad before inflaming the foot-pad, i.e. normal volume and that after inflaming it. Effect of a test compound was expressed as inhibition rate against swelling by calculating percentage in comparison with the 0.5% CMC administration group.
Indomethacin (commercially available from Merck Co.) was used as a positive comparative drug.

[2] = test system: PCA (homologous passive cutaneous anaphylaxis) in rat; assay: Inhibitory activity against PCA in rat; type: in vivo, rat (male Slc: Wistar); conditions: Rattus norvegicus; 5 mg/kg oral, 1 hour before antigen challenge; read-out: Inhibition rate against PCA
Description: An anti-dinitrophenylated-ovalbumin (hereinafter referred to as "anti-DNP-OVA") rat antiserum having 800 of PCA titer in homologous passive cutaneous anaphylaxis reaction in rats for 48 hours, was diluted 200 times with physiological saline, and diluted antiserum was injected intradermally into back of groups of 5 male Slc: Wistar rats weighing 130-150 g in a volume of 50 μl/site to be passively sensitized. After 48 hours, 0.6 ml of 1% (w/v) Evans blue solution containing 1.5 mg of antigen DNP-OVA was administered intravenously into the tail. Thirty minutes later, the rats were bled to death and skin of the rats was removed. According to the method of Katayama et al [Microbiol. […] The test compound was suspended in 0.5% (w/v) aqueous solution of carboxymethylcellulose (hereinafter referred to as "CMC"), the suspension was administered orally in a ratio of 5 mg/kg 1 hour before challenging an antigen.
Inhibition rate against PCA was calculated according to the following equation. [formula] M: Amount of leaked pigment in antibody-sensitized site under administration of CMC without the test compound
S: Amount of leaked pigment in antibody-sensitized site under administration of the test compound in CMC
B: Amount of leaked pigment in antibody-nonsensitized site

CC(C)c1cccc2n(Cc3ccc(F)cc3)c(=O)c(-c3nnn[nH]3)c-2c1 [Example 9, 1-(4-Fluorobenzyl)-5-iso-propyl-3-(5-tetrazolyl)-1-azaazulane-2-one]
Swelling volume 4 hours after inflaming, mean ± standard error [1]: 0.55 mL and 0.55 ± 0.032 mL
Inhibition rate against swelling ([1]; vs 0.5% CMC group): 38.9%
inhibition in vivo at 5 mg/kg [2]: 84.9 ± 2.2%
